# Experimental data as given in PubChem BioAssay (NCI).
#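 Following 48 hours of exposure in 96-well plates, responses at five concentrations were used to interpolate endpoints linearly. The concentration for full growth arrest is given as TGI.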
# Columns and labels:
# Assay in all cases: NCI anticancer screen, dose series, 48 h
# 786-0 renal = tested on: 786-0 renal
# A498 renal = tested on: A498 renal
# A549 NSCLC = tested on: A549 NSCLC
# ACHN renal = tested on: ACHN renal
# BT-549 breast = tested on: BT-549 breast
# CAKI-1 renal = tested on: CAKI-1 renal
# CCRF-CEM leukemia = tested on: CCRF-CEM leukemia
# COLO 205 colon = tested on: COLO 205 colon
# DU-145 prostate = tested on: DU-145 prostate
# HCC-2998 colon = tested on: HCC-2998 colon
# HCT-116 colon = tested on: HCT-116 colon
# HCT-15 colon = tested on: HCT-15 colon
# HL-60(TB) leukemia = tested on: HL-60(TB) leukemia
# HOP-62 NSCLC = tested on: HOP-62 NSCLC
# HOP-92 NSCLC = tested on: HOP-92 NSCLC
# HS 578T breast = tested on: HS 578T breast
# IGROV1 ovarian = tested on: IGROV1 ovarian
# K-562 leukemia = tested on: K-562 leukemia
# KM12 colon = tested on: KM12 colon
# LOX IMVI melanoma = tested on: LOX IMVI melanoma
# M14 melanoma = tested on: M14 melanoma
# MALME-3M melanoma = tested on: MALME-3M melanoma
# MCF7 breast = tested on: MCF7 breast
# MDA-MB-231 breast = tested on: MDA-MB-231 breast
# MDA-MB-435 = tested on: MDA-MB-435
# MDA-N = tested on: MDA-N
# NCI-H226 lung = tested on: NCI-H226 lung
# NCI-H23 lung = tested on: NCI-H23 lung
# NCI-H460 lung = tested on: NCI-H460 lung
# NCI-H522 lung = tested on: NCI-H522 lung
# NCI/ADR-RES ovarian = tested on: NCI/ADR-RES ovarian
# OVCAR-3 ovarian = tested on: OVCAR-3 ovarian
# OVCAR-4 ovarian = tested on: OVCAR-4 ovarian
# OVCAR-8 ovarian = tested on: OVCAR-8 ovarian
# PC-3 prostate = tested on: PC-3 prostate
# RPMI-8226 leukemia = tested on: RPMI-8226 leukemia
# RXF 393 renal = tested on: RXF 393 renal
# SF-268 CNS = tested on: SF-268 CNS
# SF-295 CNS = tested on: SF-295 CNS
# SF-539 CNS = tested on: SF-539 CNS
# SK-MEL-2 melanoma = tested on: SK-MEL-2 melanoma
# SK-MEL-28 melanoma = tested on: SK-MEL-28 melanoma
# SK-MEL-5 melanoma = tested on: SK-MEL-5 melanoma
# SK-OV-3 ovarian = tested on: SK-OV-3 ovarian
# SN12C renal = tested on: SN12C renal
# SNB-19 CNS = tested on: SNB-19 CNS
# SNB-75 CNS = tested on: SNB-75 CNS
# SR leukemia = tested on: SR leukemia
# SW-620 colon = tested on: SW-620 colon
# T-47D breast = tested on: T-47D breast
# TK-10 renal = tested on: TK-10 renal
# U251 CNS = tested on: U251 CNS
# UACC-257 melanoma = tested on: UACC-257 melanoma
# UACC-62 melanoma = tested on: UACC-62 melanoma
# UO-31 renal = tested on: UO-31 renal
# EKVX NSCLC = tested on: EKVX NSCLC
# HT29 colon = tested on: HT29 colon
# MOLT-4 leukemia = tested on: MOLT-4 leukemia
# OVCAR-5 ovarian = tested on: OVCAR-5 ovarian
structure (smiles),measurement,setting,value
C[N+](C)(C)CCN(Cc1cccs1)c1ccccn1,TGI,786-0 renal,> 100 µM
same,TGI,A498 renal,> 100 µM
same,TGI,A549 NSCLC,> 100 µM
same,TGI,ACHN renal,> 100 µM
same,TGI,BT-549 breast,> 100 µM
same,TGI,CAKI-1 renal,> 100 µM
same,TGI,CCRF-CEM leukemia,> 100 µM
same,TGI,COLO 205 colon,> 100 µM
same,TGI,DU-145 prostate,> 100 µM
same,TGI,HCC-2998 colon,> 100 µM
same,TGI,HCT-116 colon,> 100 µM
same,TGI,HCT-15 colon,> 100 µM
same,TGI,HL-60(TB) leukemia,> 100 µM
same,TGI,HOP-62 NSCLC,> 100 µM
same,TGI,HOP-92 NSCLC,73.9 µM
same,TGI,HS 578T breast,> 100 µM
same,TGI,IGROV1 ovarian,> 100 µM
same,TGI,K-562 leukemia,> 100 µM
same,TGI,KM12 colon,> 100 µM
same,TGI,LOX IMVI melanoma,> 100 µM
same,TGI,M14 melanoma,> 100 µM
same,TGI,MALME-3M melanoma,> 100 µM
same,TGI,MCF7 breast,> 100 µM
same,TGI,MDA-MB-231 breast,> 100 µM
same,TGI,MDA-MB-435,> 100 µM
same,TGI,MDA-N,> 100 µM
same,TGI,NCI-H226 lung,> 100 µM
same,TGI,NCI-H23 lung,> 100 µM
same,TGI,NCI-H460 lung,> 100 µM
same,TGI,NCI-H522 lung,> 100 µM
same,TGI,NCI/ADR-RES ovarian,> 100 µM
same,TGI,OVCAR-3 ovarian,> 100 µM
same,TGI,OVCAR-4 ovarian,> 100 µM
same,TGI,OVCAR-8 ovarian,> 100 µM
same,TGI,PC-3 prostate,> 100 µM
same,TGI,RPMI-8226 leukemia,> 100 µM
same,TGI,RXF 393 renal,> 100 µM
same,TGI,SF-268 CNS,> 100 µM
same,TGI,SF-295 CNS,> 100 µM
same,TGI,SF-539 CNS,> 100 µM
same,TGI,SK-MEL-2 melanoma,> 100 µM
same,TGI,SK-MEL-28 melanoma,> 100 µM
same,TGI,SK-MEL-5 melanoma,> 100 µM
same,TGI,SK-OV-3 ovarian,> 100 µM
same,TGI,SN12C renal,> 100 µM
same,TGI,SNB-19 CNS,> 100 µM
same,TGI,SNB-75 CNS,> 100 µM
same,TGI,SR leukemia,> 100 µM
same,TGI,SW-620 colon,> 100 µM
same,TGI,T-47D breast,> 100 µM
same,TGI,TK-10 renal,> 100 µM
same,TGI,U251 CNS,> 100 µM
same,TGI,UACC-257 melanoma,> 100 µM
same,TGI,UACC-62 melanoma,> 100 µM
same,TGI,UO-31 renal,> 100 µM
COCOc1cc(OCOC)cc(C(=O)Oc2ccccc2)c1,TGI,786-0 renal,> 100 µM
same,TGI,A498 renal,> 100 µM
same,TGI,A549 NSCLC,> 100 µM
same,TGI,ACHN renal,> 100 µM
same,TGI,BT-549 breast,> 100 µM
same,TGI,CAKI-1 renal,> 100 µM
same,TGI,COLO 205 colon,> 100 µM
same,TGI,DU-145 prostate,> 100 µM
same,TGI,EKVX NSCLC,> 100 µM
same,TGI,HCC-2998 colon,> 100 µM
same,TGI,HCT-116 colon,> 100 µM
same,TGI,HCT-15 colon,> 100 µM
same,TGI,HL-60(TB) leukemia,> 100 µM
same,TGI,HOP-62 NSCLC,> 100 µM
same,TGI,HOP-92 NSCLC,> 100 µM
same,TGI,HS 578T breast,> 100 µM
same,TGI,HT29 colon,> 100 µM
same,TGI,IGROV1 ovarian,> 100 µM
same,TGI,K-562 leukemia,> 100 µM
same,TGI,KM12 colon,> 100 µM
same,TGI,LOX IMVI melanoma,> 100 µM
same,TGI,M14 melanoma,> 100 µM
same,TGI,MALME-3M melanoma,> 100 µM
same,TGI,MCF7 breast,> 100 µM
same,TGI,MDA-MB-231 breast,> 100 µM
same,TGI,MDA-MB-435,> 100 µM
same,TGI,MDA-N,> 100 µM
same,TGI,MOLT-4 leukemia,> 100 µM
same,TGI,NCI-H226 lung,> 100 µM
same,TGI,NCI-H23 lung,> 100 µM
same,TGI,NCI-H460 lung,> 100 µM
same,TGI,NCI-H522 lung,> 100 µM
same,TGI,NCI/ADR-RES ovarian,> 100 µM
same,TGI,OVCAR-3 ovarian,> 100 µM
same,TGI,OVCAR-4 ovarian,> 100 µM
same,TGI,OVCAR-5 ovarian,> 100 µM
same,TGI,OVCAR-8 ovarian,> 100 µM
same,TGI,PC-3 prostate,> 100 µM
same,TGI,RPMI-8226 leukemia,> 100 µM
same,TGI,RXF 393 renal,> 100 µM
same,TGI,SF-268 CNS,> 100 µM
same,TGI,SF-295 CNS,> 100 µM
same,TGI,SF-539 CNS,> 100 µM
same,TGI,SK-MEL-2 melanoma,> 100 µM
same,TGI,SK-MEL-28 melanoma,> 100 µM
same,TGI,SK-MEL-5 melanoma,> 100 µM
same,TGI,SK-OV-3 ovarian,> 100 µM
same,TGI,SN12C renal,> 100 µM
same,TGI,SNB-19 CNS,> 100 µM
same,TGI,SNB-75 CNS,> 100 µM
same,TGI,SR leukemia,> 100 µM
same,TGI,SW-620 colon,> 100 µM
same,TGI,T-47D breast,> 100 µM
same,TGI,TK-10 renal,> 100 µM
same,TGI,U251 CNS,> 100 µM
same,TGI,UACC-257 melanoma,> 100 µM
same,TGI,UACC-62 melanoma,> 100 µM
same,TGI,UO-31 renal,> 100 µM
